According to publication PMC11188305, “Reproductive and fetal toxicity studies of histamine H3 receptor antagonist DL76 used in mice to prevent maximal electroshock-induced seizure” (Frontiers in Pharmacology, 2024):

System: C57/B6 mouse embryos
Test: Reproductive studies: maternal, fetal and gross/visceral malformation observations after treatment on GD-8 or GD-13
Assay type: in vivo
Settings: for Placental weight, IUGR −1SD / Placental weight, IUGR −2SD: fraction (percentage); for Fetal weight, IUGR −1SD / Fetal weight, IUGR −2SD: fraction of fetuses (percentage); for Number of female embryos / Number of male embryos: number (percentage); for Exomphalos / Eye open / Kinky tail / Left/right kidney hypo/descended / Mandible hypoplasia / Maxilla hypoplasia / Microtia/low set microtia / Undescended testis: number of embryos (percentage); for Live fetus/litter / Resorption/litter: parentheses contain percentages
Experimental: Reproductive studies were conducted in adult female mice, averaging 30 gm in weight and 6 weeks in age ([Padmanabhan et al., 2006]; [Bastaki et al., 2018]). Following successful mating, indicated by vaginal plug observation, the plug-positive day was considered gestation day 0 (GD-0). DL76 was administered at various doses (7.5 mg/kg, 15 mg/kg, 30 mg/kg, and 60 mg/kg) through single i.p. injections and three 15 mg/kg injections in 1 day to mouse groups on GD-8 and GD-13 (Tables 1, 2). The control group was injected with normal saline. Appropriate formation of different organs occurs in specific periods of the development of the mouse. These two periods were selected because GD-8 is known to be a critical period for the induction of neural tube defects, craniofacial malformations, and the development of other organs, whereas on GD-13, the retina and other parts are being formed, and most other organs have been formed. The number of implantations, fetal deaths, and resorptions was recorded. Fetal and placental weights were documented separately. After blotting dry, the fetuses were weighed and fixed in 95% ethanol. The reproductive toxicological effects of DL76 were assessed by observing gross and visceral malformations, following [Sterz and Lehmann (1985)], [Abdulrazzaq et al. (1997)], [Padmanabhan et al. (2003)], and [Padmanabhan et al. (2006)].
Deformities of the embryos were identified according to a modified method of [Sterz and Lehmann (1985)], [Abdulrazzaq et al. (1997)], and [Bass et al. (2020)]. Accordingly, the embryos were removed from the 95% ethanol, and the lower part of the abdomen was cut using a razor blade. All organs were checked for abnormalities with a stereo dissecting microscope, and finally, the organs were removed by using forceps.
Statistical analyses employed SPSS 26.0 (IBM Middle East, Dubai, UAE). Data were presented as means ± SEM. […] Fetal abnormality data were presented as counts and percentages. Fisher’s exact test compared the percentages of abnormalities between the control group (saline) and the different dose groups. All tests were two-tailed, and significance was set at p < 0.05.

## CC(C)(C)c1ccc(OCCCN2CCCCC2)cc1 [DL76, 1-(3-(4-tert-butyl-phenoxy)propyl) piperidine]
7.5 mg/kg i.p. on GD-8
  Fetal weight/Litter (g) (Mean ± SD): 1.143 ± 0.107 g
  Fetuses/litter: 7.714 ± 1.890
  Placental weight/Litter (g) (mean ± SD): 0.109 ± 0.11 g
  Placental weight, IUGR −1SD: 0
  Placental weight, IUGR −2SD: 0
  Fetal weight, IUGR −1SD: 0
  Fetal weight, IUGR −2SD: 0
  Number of female embryos: 19 (43.2)
  Number of male embryos: 25 (56.8)
  Exomphalos: 0
  Eye open: 2 (4.5)
  Kinky tail: 0
  Left/right kidney hypo/descended: 1 (2.3)
  Mandible hypoplasia: 3 (6.8)
  Maxilla hypoplasia: 3 (6.8)
  Microtia/low set microtia: 2 (4.5)
  Undescended testis: 2 (4.5)
  Live fetus/litter: 6.289 (81.48)
  Resorption/litter: 1.429 (18.51)
7.5 mg/kg i.p. on GD-13
  Fetal weight Litter (g) (Mean ± SD): 1.018 ± 0.103 g
  Fetuses/litter: 8.000 ± 1.291
  Placental weight/Litter (g) (mean ± SD): 0.105 ± 0.011 g
  Placental weight, IUGR −2SD: 0
  Fetal weight, IUGR −2SD: 0
  Number of female embryos: 27 (54.0)
  Number of male embryos: 23 (46.0)
  Exomphalos: 0
  Eye open: 3 (6.0)
  Kinky tail: 0
  Left/right kidney hypo/descended: 2 (4.0)
  Mandible hypoplasia: 4 (8.0)
  Microtia/low set microtia: 2 (4.0)
  Undescended testis: 1 (2.0)
  Resorption/litter: 0.857 (10.71)
7.5 mg/kg i.p. on GD-13, * p < 0.05 vs control
  Maxilla hypoplasia: 4 (8.0)*
15 mg/kg i.p. on GD-8
  Fetal weight/Litter (g) (Mean ± SD): 0.993 ± 0.106 g
  Fetuses/litter: 7.167 ± 2.317
  Placental weight/Litter (g) (mean ± SD): 0.105 ± 0.009 g
  Placental weight, IUGR −1SD: 0
  Placental weight, IUGR −2SD: 0
  Fetal weight, IUGR −1SD: 0
  Number of female embryos: 20 (52.6)
  Number of male embryos: 18 (47.4)
  Exomphalos: 1 (2.6)
  Eye open: 3 (7.9)
  Kinky tail: 0
  Left/right kidney hypo/descended: 2 (5.3)
  Mandible hypoplasia: 3 (7.9)
  Maxilla hypoplasia: 1 (2.6)
  Microtia/low set microtia: 1 (2.6)
  Undescended testis: 0
  Live fetus/litter: 6.338 (88.37)
  Resorption/litter: 0.833 (11.62)
15 mg/kg i.p. on GD-13
  Fetal weight Litter (g) (Mean ± SD): 0.998 ± 0.063 g
  Fetuses/litter: 7.571 ± 1.272
  Placental weight/Litter (g) (mean ± SD): 0.113 ± 0.015 g
  Placental weight, IUGR −2SD: 0
  Fetal weight, IUGR −2SD: 0
  Number of female embryos: 18 (45.0)
  Number of male embryos: 22 (55.0)
  Exomphalos: 0
  Eye open: 2 (5.0)
  Kinky tail: 0
  Left/right kidney hypo/descended: 1 (2.5)
  Mandible hypoplasia: 4 (10.0)
  Maxilla hypoplasia: 3 (7.5)
  Microtia/low set microtia: 2 (5.0)
  Undescended testis: 1 (2.5)
  Live fetus/litter: 5.714 (75.47)
  Resorption/litter: 1.857 (24.53)
30 mg/kg i.p. on GD-8
  Fetal weight/Litter (g) (Mean ± SD): 1.004 ± 0.047 g
  Fetuses/litter: 8.429 ± 0.787
  Placental weight/Litter (g) (mean ± SD): 0.097 ± 0.019 g
  Fetal weight, IUGR −2SD: 0
  Number of female embryos: 27 (52.9)
  Number of male embryos: 24 (47.1)
  Exomphalos: 1 (2.0)
  Eye open: 2 (3.9)
  Kinky tail: 1 (2.0)
  Mandible hypoplasia: 3 (5.9)
  Microtia/low set microtia: 2 (3.9)
  Undescended testis: 0
  Live fetus/litter: 7.286 (86.44)
  Resorption/litter: 1.143 (13.56)
30 mg/kg i.p. on GD-8, * p < 0.05 vs control
  Maxilla hypoplasia: 2 (3.9)*
30 mg/kg i.p. on GD-13
  Fetal weight Litter (g) (Mean ± SD): 1.069 ± 0.082 g
  Fetuses/litter: 7.000 ± 1.155
  Placental weight/Litter (g) (mean ± SD): 0.103 ± 0.006 g
  Placental weight, IUGR −2SD: 0
  Fetal weight, IUGR −2SD: 0
